Laboratory results as given in PubChem BioAssay (NCI).
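At the GI50, growth is halved. The concentration for full growth arrest is given as TGI.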

Tests used:
Experiment in all cases: NCI tumour cell line growth inhibition, 384-well format
786-0 renal = tested on: 786-0 renal
A498 renal = tested on: A498 renal
A549 NSCLC = tested on: A549 NSCLC
ACHN renal = tested on: ACHN renal
BT-549 breast = tested on: BT-549 breast
CAKI-1 renal = tested on: CAKI-1 renal
CCRF-CEM leukemia = tested on: CCRF-CEM leukemia
COLO 205 colon = tested on: COLO 205 colon
DU-145 prostate = tested on: DU-145 prostate
EKVX NSCLC = tested on: EKVX NSCLC
HCC-2998 colon = tested on: HCC-2998 colon
HCT-15 colon = tested on: HCT-15 colon
HL-60(TB) leukemia = tested on: HL-60(TB) leukemia
HOP-62 NSCLC = tested on: HOP-62 NSCLC
HOP-92 NSCLC = tested on: HOP-92 NSCLC
HS 578T breast = tested on: HS 578T breast
HT29 colon = tested on: HT29 colon
K-562 leukemia = tested on: K-562 leukemia
KM12 colon = tested on: KM12 colon
LOX IMVI melanoma = tested on: LOX IMVI melanoma
M14 melanoma = tested on: M14 melanoma
MALME-3M melanoma = tested on: MALME-3M melanoma
MCF7 breast = tested on: MCF7 breast
MDA-MB-231 breast = tested on: MDA-MB-231 breast
MDA-MB-435 melanoma = tested on: MDA-MB-435 melanoma
MDA-MB-468 breast = tested on: MDA-MB-468 breast
MOLT-4 leukemia = tested on: MOLT-4 leukemia
NCI-H226 lung = tested on: NCI-H226 lung
NCI-H23 lung = tested on: NCI-H23 lung
NCI-H322M lung = tested on: NCI-H322M lung
NCI-H460 NSCLC = tested on: NCI-H460 NSCLC
NCI-H522 lung = tested on: NCI-H522 lung
NCI/ADR-RES ovarian = tested on: NCI/ADR-RES ovarian
OVCAR-3 ovarian = tested on: OVCAR-3 ovarian
OVCAR-4 ovarian = tested on: OVCAR-4 ovarian
OVCAR-5 ovarian = tested on: OVCAR-5 ovarian
OVCAR-8 ovarian = tested on: OVCAR-8 ovarian
PC-3 prostate = tested on: PC-3 prostate
RPMI-8226 leukemia = tested on: RPMI-8226 leukemia
SF-268 CNS = tested on: SF-268 CNS
SF-295 CNS = tested on: SF-295 CNS
SF-539 CNS = tested on: SF-539 CNS
SK-MEL-28 melanoma = tested on: SK-MEL-28 melanoma
SK-MEL-5 melanoma = tested on: SK-MEL-5 melanoma
SK-OV-3 ovarian = tested on: SK-OV-3 ovarian
SN12C renal = tested on: SN12C renal
SNB-19 CNS = tested on: SNB-19 CNS
SNB-75 CNS = tested on: SNB-75 CNS
SR leukemia = tested on: SR leukemia
SW-620 colon = tested on: SW-620 colon
T-47D breast = tested on: T-47D breast
TK-10 renal = tested on: TK-10 renal
U251 glioblastoma = tested on: U251 glioblastoma
UACC-257 melanoma = tested on: UACC-257 melanoma
UACC-62 melanoma = tested on: UACC-62 melanoma
UO-31 renal = tested on: UO-31 renal
IGROV1 ovarian = tested on: IGROV1 ovarian
RXF 393 renal = tested on: RXF 393 renal

## S=C(NCc1ccc2c(c1)OCO2)N1CCN(c2ncnc3c2oc2ccccc23)CC1
786-0 renal
  GI50: 80.6 µM
  TGI: > 100 µM
A498 renal
  GI50: 2.95 µM
  TGI: > 100 µM
A549 NSCLC
  GI50: 9.14 µM
  TGI: > 100 µM
ACHN renal
  GI50: > 100 µM
  TGI: > 100 µM
BT-549 breast
  GI50: 7.53 µM
  TGI: > 100 µM
CAKI-1 renal
  GI50: > 100 µM
  TGI: > 100 µM
CCRF-CEM leukemia
  GI50: 0.917 µM
  TGI: 3.63 µM
COLO 205 colon
  GI50: > 100 µM
  TGI: > 100 µM
DU-145 prostate
  GI50: > 100 µM
  TGI: > 100 µM
EKVX NSCLC
  GI50: 6.12 µM
  TGI: > 100 µM
HCC-2998 colon
  GI50: 21.7 µM
  TGI: > 100 µM
HCT-15 colon
  GI50: 33.2 µM
  TGI: > 100 µM
HL-60(TB) leukemia
  GI50: 3.18 µM
  TGI: 30.8 µM
HOP-62 NSCLC
  GI50: 2.78 µM
  TGI: > 100 µM
HOP-92 NSCLC
  GI50: 62.7 µM
  TGI: > 100 µM
HS 578T breast
  GI50: 23.2 µM
  TGI: > 100 µM
HT29 colon
  GI50: > 100 µM
  TGI: > 100 µM
K-562 leukemia
  GI50: 1.62 µM
  TGI: > 100 µM
KM12 colon
  GI50: > 100 µM
  TGI: > 100 µM
LOX IMVI melanoma
  GI50: 3.02 µM
  TGI: > 100 µM
M14 melanoma
  GI50: > 100 µM
  TGI: > 100 µM
MALME-3M melanoma
  GI50: > 100 µM
  TGI: > 100 µM
MCF7 breast
  GI50: 3.01 µM
  TGI: > 100 µM
MDA-MB-231 breast
  GI50: 6.31 µM
  TGI: > 100 µM
MDA-MB-435 melanoma
  GI50: 72.4 µM
  TGI: > 100 µM
MDA-MB-468 breast
  GI50: 0.673 µM
  TGI: 3.32 µM
MOLT-4 leukemia
  GI50: 1.48 µM
  TGI: 4.8 µM
NCI-H226 lung
  GI50: 23.6 µM
  TGI: > 100 µM
NCI-H23 lung
  GI50: 1.87 µM
  TGI: > 100 µM
NCI-H322M lung
  GI50: 2.55 µM
  TGI: > 100 µM
NCI-H460 NSCLC
  GI50: 2.94 µM
  TGI: 9.25 µM
NCI-H522 lung
  GI50: 35.4 µM
  TGI: > 100 µM
NCI/ADR-RES ovarian
  GI50: 1.36 µM
  TGI: 6.54 µM
OVCAR-3 ovarian
  GI50: > 100 µM
  TGI: > 100 µM
OVCAR-4 ovarian
  GI50: 5.77 µM
  TGI: > 100 µM
OVCAR-5 ovarian
  GI50: > 100 µM
  TGI: > 100 µM
OVCAR-8 ovarian
  GI50: 3.04 µM
  TGI: > 100 µM
PC-3 prostate
  GI50: 67.6 µM
  TGI: > 100 µM
RPMI-8226 leukemia
  GI50: 1.79 µM
  TGI: 89.1 µM
SF-268 CNS
  GI50: > 100 µM
  TGI: > 100 µM
SF-295 CNS
  GI50: > 100 µM
  TGI: > 100 µM
SF-539 CNS
  GI50: > 100 µM
  TGI: > 100 µM
SK-MEL-28 melanoma
  GI50: > 100 µM
  TGI: > 100 µM
SK-MEL-5 melanoma
  GI50: 1.06 µM
  TGI: 2.69 µM
SK-OV-3 ovarian
  GI50: 6.63 µM
  TGI: > 100 µM
SN12C renal
  GI50: > 100 µM
  TGI: > 100 µM
SNB-19 CNS
  GI50: > 100 µM
  TGI: > 100 µM
SNB-75 CNS
  GI50: > 100 µM
  TGI: > 100 µM
SR leukemia
  GI50: 0.49 µM
  TGI: 3.36 µM
SW-620 colon
  GI50: > 100 µM
  TGI: > 100 µM
T-47D breast
  GI50: 0.593 µM
  TGI: 8.23 µM
TK-10 renal
  GI50: 71.6 µM
  TGI: > 100 µM
U251 glioblastoma
  GI50: 8.72 µM
  TGI: > 100 µM
UACC-257 melanoma
  GI50: 6.23 µM
  TGI: > 100 µM
UACC-62 melanoma
  GI50: > 100 µM
  TGI: > 100 µM
UO-31 renal
  GI50: 15.9 µM
  TGI: 89 µM

## C[C@@H](NC(=O)c1ccc(F)cc1)c1ccc2c(c1)CCN2C(=O)C1CCOCC1
786-0 renal
  GI50: > 100 µM
  TGI: > 100 µM
A498 renal
  GI50: > 100 µM
  TGI: > 100 µM
A549 NSCLC
  GI50: > 100 µM
  TGI: > 100 µM
ACHN renal
  GI50: > 100 µM
  TGI: > 100 µM
BT-549 breast
  GI50: > 100 µM
  TGI: > 100 µM
CAKI-1 renal
  GI50: > 100 µM
  TGI: > 100 µM
CCRF-CEM leukemia
  GI50: > 100 µM
  TGI: > 100 µM
COLO 205 colon
  GI50: > 100 µM
  TGI: > 100 µM
DU-145 prostate
  GI50: > 100 µM
  TGI: > 100 µM
EKVX NSCLC
  GI50: > 100 µM
  TGI: > 100 µM
HCC-2998 colon
  GI50: > 100 µM
  TGI: > 100 µM
HCT-15 colon
  GI50: > 100 µM
  TGI: > 100 µM
HL-60(TB) leukemia
  GI50: > 100 µM
  TGI: > 100 µM
HOP-62 NSCLC
  GI50: > 100 µM
  TGI: > 100 µM
HOP-92 NSCLC
  GI50: > 100 µM
  TGI: > 100 µM
HS 578T breast
  GI50: > 100 µM
  TGI: > 100 µM
HT29 colon
  GI50: > 100 µM
  TGI: > 100 µM
IGROV1 ovarian
  GI50: > 100 µM
  TGI: > 100 µM
K-562 leukemia
  GI50: > 100 µM
  TGI: > 100 µM
KM12 colon
  GI50: > 100 µM
  TGI: > 100 µM
LOX IMVI melanoma
  GI50: > 100 µM
  TGI: > 100 µM
M14 melanoma
  GI50: > 100 µM
  TGI: > 100 µM
MALME-3M melanoma
  GI50: > 100 µM
  TGI: > 100 µM
MCF7 breast
  GI50: > 100 µM
  TGI: > 100 µM
MDA-MB-231 breast
  GI50: > 100 µM
  TGI: > 100 µM
MDA-MB-435 melanoma
  GI50: > 100 µM
  TGI: > 100 µM
MDA-MB-468 breast
  GI50: 34.4 µM
  TGI: > 100 µM
MOLT-4 leukemia
  GI50: > 100 µM
  TGI: > 100 µM
NCI-H226 lung
  GI50: > 100 µM
  TGI: > 100 µM
NCI-H23 lung
  GI50: > 100 µM
  TGI: > 100 µM
NCI-H322M lung
  GI50: > 100 µM
  TGI: > 100 µM
NCI-H460 NSCLC
  GI50: > 100 µM
  TGI: > 100 µM
NCI-H522 lung
  GI50: > 100 µM
  TGI: > 100 µM
NCI/ADR-RES ovarian
  GI50: > 100 µM
  TGI: > 100 µM
OVCAR-3 ovarian
  GI50: > 100 µM
  TGI: > 100 µM
OVCAR-4 ovarian
  GI50: 80.7 µM
  TGI: > 100 µM
OVCAR-5 ovarian
  GI50: > 100 µM
  TGI: > 100 µM
OVCAR-8 ovarian
  GI50: > 100 µM
  TGI: > 100 µM
PC-3 prostate
  GI50: > 100 µM
  TGI: > 100 µM
RPMI-8226 leukemia
  GI50: 91.4 µM
  TGI: > 100 µM
RXF 393 renal
  GI50: > 100 µM
  TGI: > 100 µM
SF-268 CNS
  GI50: > 100 µM
  TGI: > 100 µM
SF-295 CNS
  GI50: > 100 µM
  TGI: > 100 µM
SF-539 CNS
  GI50: > 100 µM
  TGI: > 100 µM
SK-MEL-28 melanoma
  GI50: > 100 µM
  TGI: > 100 µM
SK-MEL-5 melanoma
  GI50: > 100 µM
  TGI: > 100 µM
SK-OV-3 ovarian
  GI50: > 100 µM
  TGI: > 100 µM
SN12C renal
  GI50: > 100 µM
  TGI: > 100 µM
SNB-19 CNS
  GI50: > 100 µM
  TGI: > 100 µM
SNB-75 CNS
  GI50: > 100 µM
  TGI: > 100 µM
SR leukemia
  GI50: > 100 µM
  TGI: > 100 µM
SW-620 colon
  GI50: > 100 µM
  TGI: > 100 µM
T-47D breast
  GI50: 58.6 µM
  TGI: > 100 µM
TK-10 renal
  GI50: > 100 µM
  TGI: > 100 µM
UACC-257 melanoma
  GI50: > 100 µM
  TGI: > 100 µM
UACC-62 melanoma
  GI50: > 100 µM
  TGI: > 100 µM
UO-31 renal
  GI50: > 100 µM
  TGI: > 100 µM
